Holding throughout (assay type): cell-based
In data set [1] the test system is HIV-1 IIIB (T-tropic, CXCR4 utilizing). The data set is described as follows: HOS HIV-1 infectivity assay. In short, it runs like this:
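Blockade of infection is measured in HOS cells carrying hCD4, hCXCR4, hCCR5 and an HIV-LTR-driven luciferase, using virus grown in human peripheral blood lymphocytes. After 96 h, Steady-Glo luminescence reports infection, while CellTiter-Glo gauges cytotoxicity without virus.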

For a further data set, the target named is T1, human CXCR4 (Homo sapiens, UniProt P61073).
T1 construct: expressed in transfected cells; host or cells: HEK-293 cells (stably expressing human macrophage scavenging receptor) transduced with human CXCR4 BacMam and Gqi5 BacMam baculoviruses
T1 sequence (P61073 whole entry): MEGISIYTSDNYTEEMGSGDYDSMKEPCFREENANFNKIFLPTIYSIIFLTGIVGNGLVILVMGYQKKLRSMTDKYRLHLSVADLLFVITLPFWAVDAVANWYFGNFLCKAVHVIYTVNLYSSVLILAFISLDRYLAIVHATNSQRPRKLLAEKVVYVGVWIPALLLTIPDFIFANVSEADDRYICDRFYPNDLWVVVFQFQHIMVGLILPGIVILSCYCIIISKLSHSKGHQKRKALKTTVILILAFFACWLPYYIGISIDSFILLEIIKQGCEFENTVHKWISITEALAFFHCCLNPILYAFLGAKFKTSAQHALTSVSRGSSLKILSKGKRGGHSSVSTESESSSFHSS
Nature of the data set: Functional FLIPR assay (block of SDF-1 alpha induced [Ca2+]i change). The note with it: HEK-293 cells with human CXCR4 BacMam and Gqi5 BacMam; antagonism of SDF-1 alpha; read-out: Functional assay (pIC50) (converted). The protocol:
Human embryonic kidney (HEK-293) cells were maintained and harvested as described above. Cells were plated in 96-well, black clear bottom, poly-lysine coated plates at a concentration of 40,000 cells per well in a final volume of 100 ul containing human CXCR4BacMam (MOI=25) and Gqi5 BacMam (MOI=12.5). The cells were incubated at 37° C., 5% CO2, 95% humidity for 24 h to allow for protein expression.
After the required incubation time the cells were washed once with 50 ul of fresh serum-free DMEM/F12 media containing probenicid. 50 ul of dye solution was then added to the cells (Calcium Plus Assay Kit Dye; Molecular Devices) was dissolved in 200 ml of the above probenicid/BSA containing media and incubated for 1 h. Cell plates were transferred to a Fluorometric Imaging Plate Reader (FLIPR). Upon addition the effect of the compounds on the change in [Ca^2+]i was examined to determine if the compounds were agonists or antagonists (ability to block SDF-1 alpha activity) at the CXCR4 receptor. IC50 values are determined and pKb values are calculated using the Leff and Dougall equation: KB=IC50/((2+([agonist]/EC50ˆb)ˆ1/b−1) Where IC50 is that defined by the antagonist concentration-response curve [agonist] is the EC80 concentration of agonist used EC50 is that defined by the agonist concentration-response curve b is the slope of the agonist concentration-response curve.

Data set [2] can be described thus: Compound cytotoxicity in the absence of virus addition (CellTiter-Glo). The note with it: human; non-infected HOS cultures; read-out: Cytotox (pIC50) (converted). The procedure:
Compounds were profiled against two HIV-1 viruses, the M-tropic (CCR5 utilizing) Ba-L strain and the T-tropic (CXCR4 utilizing) IIIB strain. Both viruses were propagated in human peripheral blood lymphocytes. Compounds were tested for there ability to block infection of the HOS cell line (expressing hCXCR4/hCCR5/hCD4/pHIV-LTR-luciferase) by either HIV-1 Ba-L or HIV-1 IIIB. Compound cytotoxicity was also examined in the absence of virus addition.
HOS cells (expressing hCXCR4/hCCR5/hCD4/pHIV-LTR-luciferase) were harvested and diluted in Dulbeccos modified Eagles media supplemented with 2% FCS and non-essential amino acid to a concentration of 60,000 cells/ml. The cells were plated into 96-well plates (100 ul per well) and the plates were placed in a tissue culture incubator (37° C.; 5% CO2/95% air) for a period of 24 h.
Subsequently, 50 ul of the desired drug solution (4 times the final concentration) was added to each well and the plates were returned to the tissue culture incubator (37° C.; 5% CO2/95% air) for 1 h. Following this incubation 50 ul of diluted virus was added to each well (approximately 2 million RLU per well of virus). The plates were returned to the tissue culture incubator (37° C.; 5% CO2/95% air) and were incubated for a further 96 h.
Following this incubation the endpoint for the virally infected cultures was quantified following addition of Steady-Glo Luciferase assay system reagent (Promega, Madison, Wis.). Cell viability or non-infected cultures was measured using a CellTiter-Glo luminescent cell viability assay system (Promega, Madison, Wis.). All luminescent readouts are performed on a Topcount luminescence detector (Packard, Meridien, Conn.).
A general note: Cellular ATP, detected with luciferase, serves as a proxy for viable cell number.

The test system of data set [3] is HIV-1 gp160 (from the HXB2 HIV strain). The data set is described as follows: Cell/cell fusion assay (HEK-293 expressing HIV-1 tat, rev, gp160 with HOS hCXCR4/hCCR5/hCD4/pHIV-LTR-luciferase cells). Particulars: Human immunodeficiency virus 1, HXB2, HEK293, 24 h, read-out: Fusion assay (pIC50), luciferase readout after 24 h (converted). The text has this: The complete coding sequences of HIV-1 tat (GenBank Accession No. X07861) and rev (GenBank Accession No. M34378) were cloned into pcDNA3.1 expression vectors containing G418 and hygromycin resistance genes, respectively. The complete coding sequence of the HIV-1 (HXB2 strain) gp160 envelope gene (nucleotide bases 6225-8795 of GenBank Accession No. K03455) was cloned into plasmid pCRII-TOPO. The three HIV genes were additionally inserted into the baculovirus shuttle vector, pFastBacMam1, under the transcriptional control of the CMV promoter. A construction of the pHIV-I LTR containing mutated NFkB sequences linked to the luciferase reporter gene was prepared by digesting pcDNA3.1, containing the G418 resistance gene, with Nru I and Bam HI to remove the CMV promoter. LTR-luc was then cloned into the Nru I/Bam HI sites of the plasmid vector. Plasmid preparations were performed after the plasmids were amplified in Escherichia coli strain DH5-alpha. The fidelity of the inserted sequences was confirmed by double-strand nucleotide sequencing using an ABI Prism Model 377 automated sequencer.
Recombinant BacMam baculoviruses were constructed from pFastBacMam shuttle plasmids by using the bacterial cell-based Bac-to-Bac system. Viruses were propagated in Sf9 (Spodoptera frugiperda) cells cultured in Hink's TNM-FH Insect media supplemented with 10% (v/v) fetal bovine serum and 0.1% (v/v) pluronic F-68 according to established protocols.
Human osteosarcoma (HOS) cells that naturally express human CXCR4 were transfected with human CCR5, human CD4 and the pHIV-LTR-luciferase plasmid using FuGENE 6 transfection reagent. Single cells were isolated and grown under selection condition in order to generate a stable HOS (hCXCR4/hCCR5/hCD4/pHIV-LTR-luciferase) clonal cell line. The cells were maintained in Dulbeccos modified Eagles media supplemented with 10% fetal calf serum (FCS), G418 (400 ug/ml), puromycin (1 ug/ml), mycophenolic acid (40 ug/ml), xanthine (250 ug/ml) and hypoxanthine (13.5 ug/ml) to maintain a selection pressure for cells expressing the LTR-luciferase, hCCR5 and hCD4, respectively. Human embryonic kidney (HEK-293) cells stably transfected to express the human macrophage scavenging receptor (Class A, type 1; GenBank Accession No. D90187), were maintained in DMEM/F-12 media (1:1) supplemented with 10% FCS and 1.5 ug/ml puromycin. The expression of this receptor by the HEK-293 cells enhances their ability to stick to tissue culture treated plasticware.
HEK-293 cells were harvested using enzyme-free cell dissociation buffer. The cells were resuspended in DMEM/F-12 media supplemented with 10% FCS and 1.5 ug/ml and counted. Tranductions were performed by direct addition of BacMam baculovirus containing insect cell media to cells. The cells were simultaneously transduced with BacMam baculovirus expressing HIV-1 tat, HIV-1 rev and HIV-1 gp160 (from the HXB2 HIV strain). Routinely an MOI of 10 of each virus was added to the media containing the cells. 2 mM butyric acid was also added to the cells at this stage to increase protein expression in transduced cells. The cells were subsequently mixed and seeded into a flask at 30 million cells per T225. The cells were incubated at 37° C., 5% CO2, 95% humidity for 24 h to allow for protein expression.
HEK and HOS cells were harvested in DMEM/F-12 media containing 2% FCS and DMEM media containing 2% FCS, respectively, with no selection agents added. Compounds were plated as 1 ul spots in 100% DMSO on a 96-well CulturPlate plates. HOS cells (50 ul) were added first to the wells, followed immediately by the HEK cells (50 ul). The final concentration of each cell type was 20,000 cells per well. Following these additions, the cells were returned to a tissue culture incubator (37° C.; 5% CO2/95% air) for an additional 24 h.
Following the 24 h incubation, total cellular luciferase activity was measured using the LucLite Plus assay kit (Packard, Meridien, Conn.). […]

Setting [4] is: Human immunodeficiency virus 1, IIIB, as determined by the infectivity assay, strain not stated in Table 2, read-out: Activity Level.
Setting [5] is: Human immunodeficiency virus 1, HIV-1 IIIB, HOS cells, 96 h, luciferase readout, read-out: HOS (3B).
The mark [6] stands for this setting: as determined by the infectivity assay, strain not stated in Table 2, read-out: Activity Level.

Where two headings read alike, the source gives them in different places. Bounds are passed on as bounds.

Turning to `CN1CCN(C(=O)c2cccc3[nH]c(CN(C)C4CCCc5cccnc54)nc23)CC1` (stereo not drawn) [Example 22, N-Methyl-N-({4-[(4-methyl-1-piperazinyl)carbonyl]-1H-benzimidazol-2-yl}methyl)-5,6,7,8-tetrahydro-8-quinolinamine], the IC50 was 100 to 500 nM in data set [1] (setting [4]), 331 nM in data set [1] (setting [5]), 170 nM at human CXCR4 and 1050 nM in data set [3]. For the same molecule, the IC50 at 96 h in data set [2] is above 100000 nM.

For the molecule `CN(Cc1nc2cccc(C(=O)NCCc3cnc[nH]3)c2[nH]1)C1CCCc2cccnc21` (stereo not drawn) [Example 23, N-[2-(1H-Imidazol-4-yl)ethyl]-2-{[methyl(5,6,7,8-tetrahydro-8-quinolinyl)amino]methyl}-1H-benzimidazole-4-carboxamide], the IC50 in data set [1] (setting [4]) was below 100 nM; in data set [1] (setting [5]), 18 nM; at human CXCR4 it was 13.5 nM; in data set [3], 158 nM. In data set [2], the IC50 at 96 h was above 100000 nM.

Take `CN(Cc1nc2c(C(=O)NCCc3cn(C)cn3)cccc2[nH]1)C1CCCc2cccnc21` (stereo not drawn) [Example 24, N-[2-(1-Methyl-1H-imidazol-4-yl)ethyl]-2-{[methyl(5,6,7,8-tetrahydro-8-quinolinyl)amino]methyl}-1H-benzimidazole-4-carboxamide]: the IC50 is below 100 nM in data set [1] (setting [4]), 22 nM in data set [1] (setting [5]), 12.3 nM on human CXCR4 and 145 nM in data set [3]. In addition, the IC50 at 96 h in data set [2] was above 100000 nM.

For `CN(Cc1nc2c(C(N)=O)cccc2[nH]1)C1CCCc2cccnc21` (stereo not drawn) [Example 25, 2-{[Methyl(5,6,7,8-tetrahydro-8-quinolinyl)amino]methyl}-1H-benzimidazole-4-carboxamide], the IC50 in data set [1] (setting [4]) was 100 to 500 nM; in data set [1] (setting [5]), 143 nM; on human CXCR4, 174 nM; in data set [3] it was 275 nM. In addition, the IC50 at 96 h in data set [2] is above 100000 nM.

On to `CN(Cc1nc2c(C(=O)NCCN)cccc2[nH]1)C1CCCc2cccnc21` (stereo not drawn) [Example 26, N-(2-Aminoethyl)-2-{[methyl(5,6,7,8-tetrahydro-8-quinolinyl)amino]methyl}-1H-benzimidazole-4-carboxamide], for which the IC50 in data set [1] (setting [4]) was below 100 nM; in data set [1] (setting [5]), 27 nM; on human CXCR4, 20.9 nM; in data set [3], 49 nM. Moreover, the IC50 at 96 h in data set [2] is above 100000 nM.

For `CN(Cc1nc2c(C(=O)NCCCN3CCCC3)cccc2[nH]1)C1CCCc2cccnc21` (stereo not drawn) [Example 28, 2-{[Methyl(5,6,7,8-tetrahydro-8-quinolinyl)amino]methyl}-N-[3-(1-pyrrolidinyl)propyl]-1H-benzimidazole-4-carboxamide], the IC50 in data set [1] (setting [4]) is below 100 nM; in data set [1] (setting [5]) it was 44 nM; at human CXCR4 it was 57.5 nM; in data set [3], 148 nM. Also, in data set [2], the IC50 at 96 h is above 100000 nM.

In the case of `CN(C)CCCNC(=O)c1cccc2[nH]c(CN(C)C3CCCc4cccnc43)nc12` (stereo not drawn) [Example 29, N-[3-(Dimethylamino)propyl]-2-{[methyl(5,6,7,8-tetrahydro-8-quinolinyl)amino]methyl}-1H-benzimidazole-4-carboxamide], the IC50 was below 100 nM in data set [1] (setting [4]), 81 nM in data set [1] (setting [5]), 132 nM at human CXCR4 and 257 nM in data set [3]. Besides, the IC50 at 96 h in data set [2] was above 100000 nM.

On to `CN(Cc1nc2c(C(=O)N3CCC(N)CC3)cccc2[nH]1)C1CCCc2cccnc21` (stereo not drawn) [Example 30, N-({4-[(4-Amino-1-piperidinyl)carbonyl]-1H-benzimidazol-2-yl}methyl)-N-methyl-5,6,7,8-tetrahydro-8-quinolinamine], for which the IC50 is 75 nM in data set [1] (setting [5]), below 100 nM in data set [1] (setting [6]), 2000 nM at human CXCR4 and 407 nM in data set [3]. The IC50 at 96 h in data set [2] was above 100000 nM.

For `CN(Cc1nc2c(C(=O)N3CCC(N)C3)cccc2[nH]1)C1CCCc2cccnc21` (stereo not drawn) [Example 31, N-({4-[(3-Amino-1-pyrrolidinyl)carbonyl]-1H-benzimidazol-2-yl}methyl)-N-methyl-5,6,7,8-tetrahydro-8-quinolinamine], the IC50 in data set [1] (setting [5]) is 22 nM; in data set [1] (setting [6]), below 100 nM; on human CXCR4 it was 12.3 nM; in data set [3] it was 49 nM. In addition, in data set [2], the IC50 at 96 h is above 100000 nM.

The record behind these values is patent US20080045537A1, “Chemical Compounds” (priority 2004, published 2008).
